{"source": "PubChem BioAssay AID1963825", "about": "(Molecular Pharmacology Branch, DTP, NCI, 2024)"}
{"experiment": "Anticancer human tumor 997537-175-T-J1-PDC patient-derived colon adenocarcinoma cell line growth inhibition [POLQ]", "conditions": "997537-175-T-J1-PDC complex spheroid viability, combination with POLQ inhibitors; curve of first compound; second compound 0.0316 µM", "procedure,_shortened": "(§1)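 PDC + HUVEC + MSC complex spheroids; POLQ inhibitors ± partner drugs; top conc. at/near clinical Cmax, else 10 microM (SN-38 1 microM), half-log dilutions; 37 degrees C, 5% CO2.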", "units": {"IC50": "µM"}}
{"smiles": "Nc1ccn(C2OC(CO)C(O)C2(F)F)c(=O)n1", "note": "(stereo unspecified) + Cc1cccc(N(C)C(=O)C2C(O)CCN2c2nc(C)cc(C(F)(F)F)c2C#N)c1", "IC50": "> 10"}
{"smiles": "CC1COCCN1c1cc(-c2ccnn2C)c2ccnc(-c3ccn[nH]3)c2n1", "note": "(stereo unspecified) + COC1C(OC(N)=O)C(O)C(Oc2ccc3c(O)c(NC(=O)c4ccc(O)c(CC=C(C)C)c4)c(=O)oc3c2C)OC1(C)C", "IC50": 0.221}
{"smiles": "CC1COCCN1c1cc(C2(S(C)(=N)=O)CC2)nc(-c2ccnc3[nH]ccc23)n1", "note": "(stereo unspecified) + Nc1ccc(C#CCN(C(=O)Cc2ncc(C(F)(F)F)cc2C(F)(F)F)c2ccc(F)cc2)nn1", "IC50": "> 10"}
{"smiles": "CCCS(=O)(=O)Nc1ccc(F)c(C(=O)c2c[nH]c3ncc(-c4ccc(Cl)cc4)cc23)c1F", "note": "+ Cc1cccc(N(C)C(=O)C2C(O)CCN2c2nc(C)cc(C(F)(F)F)c2C#N)c1", "IC50": 4.85}
{"smiles": "CCc1cc2c(N3CCc4c(cc(Cn5ccnc5)cc4-c4cn(C)nc4C(F)(F)F)C3=O)ccnc2c(OC)n1", "note": "+ Cc1cccc(N(C)C(=O)C2C(O)CCN2c2nc(C)cc(C(F)(F)F)c2C#N)c1", "IC50": "> 10"}
{"experiment": "Anticancer human tumor 997537-175-T-J1-PDC cell line growth inhibition [POLQ];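 note: luminescence signal used as a surrogate for viable cells; spheroids exposed to drugs for seven days before readout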", "conditions": "997537-175-T-J1-PDC complex spheroid viability, combination with POLQ inhibitors; curve of first compound; second compound 0.1 µM", "procedure,_shortened": "as §1", "units": {"IC50": "µM"}}
{"smiles": "Nc1ccn(C2OC(CO)C(O)C2(F)F)c(=O)n1", "note": "(stereo unspecified) + Cc1cccc(N(C)C(=O)C2C(O)CCN2c2nc(C)cc(C(F)(F)F)c2C#N)c1", "IC50": "> 10"}
{"smiles": "CC1COCCN1c1cc(-c2ccnn2C)c2ccnc(-c3ccn[nH]3)c2n1", "note": "(stereo unspecified) + COC1C(OC(N)=O)C(O)C(Oc2ccc3c(O)c(NC(=O)c4ccc(O)c(CC=C(C)C)c4)c(=O)oc3c2C)OC1(C)C", "IC50": 0.648}
{"smiles": "CC1COCCN1c1cc(C2(S(C)(=N)=O)CC2)nc(-c2ccnc3[nH]ccc23)n1", "note": "(stereo unspecified) + Nc1ccc(C#CCN(C(=O)Cc2ncc(C(F)(F)F)cc2C(F)(F)F)c2ccc(F)cc2)nn1", "IC50": 7.51}
{"smiles": "CCCS(=O)(=O)Nc1ccc(F)c(C(=O)c2c[nH]c3ncc(-c4ccc(Cl)cc4)cc23)c1F", "note": "+ Cc1cccc(N(C)C(=O)C2C(O)CCN2c2nc(C)cc(C(F)(F)F)c2C#N)c1", "IC50": 5.35}
{"smiles": "CCc1cc2c(N3CCc4c(cc(Cn5ccnc5)cc4-c4cn(C)nc4C(F)(F)F)C3=O)ccnc2c(OC)n1", "note": "+ Cc1cccc(N(C)C(=O)C2C(O)CCN2c2nc(C)cc(C(F)(F)F)c2C#N)c1", "IC50": "> 10"}
{"experiment": "Anticancer human tumor 997537-175-T-J1-PDC cell line growth inhibition [POLQ];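 note: luminescence signal used as a surrogate for viable cells; spheroids exposed to drugs for seven days before readout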", "conditions": "997537-175-T-J1-PDC complex spheroid viability, combination with POLQ inhibitors; curve of first compound; second compound 0.316 µM", "procedure,_shortened": "as §1", "units": {"IC50": "µM"}}
{"smiles": "Nc1ccn(C2OC(CO)C(O)C2(F)F)c(=O)n1", "note": "(stereo unspecified) + Cc1cccc(N(C)C(=O)C2C(O)CCN2c2nc(C)cc(C(F)(F)F)c2C#N)c1", "IC50": "> 10"}
{"smiles": "CC1COCCN1c1cc(-c2ccnn2C)c2ccnc(-c3ccn[nH]3)c2n1", "note": "(stereo unspecified) + COC1C(OC(N)=O)C(O)C(Oc2ccc3c(O)c(NC(=O)c4ccc(O)c(CC=C(C)C)c4)c(=O)oc3c2C)OC1(C)C", "IC50": 0.314}
{"smiles": "CC1COCCN1c1cc(C2(S(C)(=N)=O)CC2)nc(-c2ccnc3[nH]ccc23)n1", "note": "(stereo unspecified) + Nc1ccc(C#CCN(C(=O)Cc2ncc(C(F)(F)F)cc2C(F)(F)F)c2ccc(F)cc2)nn1", "IC50": "> 10"}
{"smiles": "CCCS(=O)(=O)Nc1ccc(F)c(C(=O)c2c[nH]c3ncc(-c4ccc(Cl)cc4)cc23)c1F", "note": "+ Cc1cccc(N(C)C(=O)C2C(O)CCN2c2nc(C)cc(C(F)(F)F)c2C#N)c1", "IC50": 5.84}
{"smiles": "CCc1cc2c(N3CCc4c(cc(Cn5ccnc5)cc4-c4cn(C)nc4C(F)(F)F)C3=O)ccnc2c(OC)n1", "note": "+ Cc1cccc(N(C)C(=O)C2C(O)CCN2c2nc(C)cc(C(F)(F)F)c2C#N)c1", "IC50": "> 10"}
{"experiment": "Anticancer human tumor 997537-175-T-J1-PDC cell line growth inhibition [POLQ];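 note: luminescence signal used as a surrogate for viable cells; spheroids exposed to drugs for seven days before readout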", "conditions": "997537-175-T-J1-PDC complex spheroid viability, combination with POLQ inhibitors; curve of first compound; second compound 1 µM", "procedure,_shortened": "as §1", "units": {"IC50": "µM"}}
{"smiles": "Nc1ccn(C2OC(CO)C(O)C2(F)F)c(=O)n1", "note": "(stereo unspecified) + Cc1cccc(N(C)C(=O)C2C(O)CCN2c2nc(C)cc(C(F)(F)F)c2C#N)c1", "IC50": "> 10"}
{"smiles": "CC1COCCN1c1cc(-c2ccnn2C)c2ccnc(-c3ccn[nH]3)c2n1", "note": "(stereo unspecified) + COC1C(OC(N)=O)C(O)C(Oc2ccc3c(O)c(NC(=O)c4ccc(O)c(CC=C(C)C)c4)c(=O)oc3c2C)OC1(C)C", "IC50": 0.409}
{"smiles": "CC1COCCN1c1cc(C2(S(C)(=N)=O)CC2)nc(-c2ccnc3[nH]ccc23)n1", "note": "(stereo unspecified) + Nc1ccc(C#CCN(C(=O)Cc2ncc(C(F)(F)F)cc2C(F)(F)F)c2ccc(F)cc2)nn1", "IC50": "> 10"}
{"smiles": "CCCS(=O)(=O)Nc1ccc(F)c(C(=O)c2c[nH]c3ncc(-c4ccc(Cl)cc4)cc23)c1F", "note": "+ Cc1cccc(N(C)C(=O)C2C(O)CCN2c2nc(C)cc(C(F)(F)F)c2C#N)c1", "IC50": 4.49}
{"smiles": "CCc1cc2c(N3CCc4c(cc(Cn5ccnc5)cc4-c4cn(C)nc4C(F)(F)F)C3=O)ccnc2c(OC)n1", "note": "+ Cc1cccc(N(C)C(=O)C2C(O)CCN2c2nc(C)cc(C(F)(F)F)c2C#N)c1", "IC50": "> 10"}
{"experiment": "Anticancer human tumor 997537-175-T-J1-PDC cell line growth inhibition [POLQ];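 note: luminescence signal used as a surrogate for viable cells; spheroids exposed to drugs for seven days before readout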", "conditions": "997537-175-T-J1-PDC complex spheroid viability, combination with POLQ inhibitors; curve of first compound; second compound 3.16 µM", "procedure,_shortened": "as §1", "units": {"IC50": "µM"}}
{"smiles": "Nc1ccn(C2OC(CO)C(O)C2(F)F)c(=O)n1", "note": "(stereo unspecified) + Cc1cccc(N(C)C(=O)C2C(O)CCN2c2nc(C)cc(C(F)(F)F)c2C#N)c1", "IC50": "> 10"}
{"smiles": "CC1COCCN1c1cc(-c2ccnn2C)c2ccnc(-c3ccn[nH]3)c2n1", "note": "(stereo unspecified) + COC1C(OC(N)=O)C(O)C(Oc2ccc3c(O)c(NC(=O)c4ccc(O)c(CC=C(C)C)c4)c(=O)oc3c2C)OC1(C)C", "IC50": 0.666}
{"smiles": "CC1COCCN1c1cc(C2(S(C)(=N)=O)CC2)nc(-c2ccnc3[nH]ccc23)n1", "note": "(stereo unspecified) + Nc1ccc(C#CCN(C(=O)Cc2ncc(C(F)(F)F)cc2C(F)(F)F)c2ccc(F)cc2)nn1", "IC50": 6.51}
{"smiles": "CCCS(=O)(=O)Nc1ccc(F)c(C(=O)c2c[nH]c3ncc(-c4ccc(Cl)cc4)cc23)c1F", "note": "+ Cc1cccc(N(C)C(=O)C2C(O)CCN2c2nc(C)cc(C(F)(F)F)c2C#N)c1", "IC50": 6.65}
{"smiles": "CCc1cc2c(N3CCc4c(cc(Cn5ccnc5)cc4-c4cn(C)nc4C(F)(F)F)C3=O)ccnc2c(OC)n1", "note": "+ Cc1cccc(N(C)C(=O)C2C(O)CCN2c2nc(C)cc(C(F)(F)F)c2C#N)c1", "IC50": "> 10"}
{"experiment": "Anticancer human tumor 997537-175-T-J1-PDC cell line growth inhibition [POLQ]", "conditions": "997537-175-T-J1-PDC complex spheroid viability, combination with POLQ inhibitors; curve of first compound; second compound 10 µM", "procedure,_shortened": "as §1", "units": {"IC50": "µM"}}
{"smiles": "Nc1ccn(C2OC(CO)C(O)C2(F)F)c(=O)n1", "note": "(stereo unspecified) + Cc1cccc(N(C)C(=O)C2C(O)CCN2c2nc(C)cc(C(F)(F)F)c2C#N)c1", "IC50": "> 10"}
